Test results published in publication PMC10786919, “Design-rules for stapled peptides with in vivo activity and their application to Mdm2/X antagonists” (Nature Communications, 2024).
Values after ≈ are worked out from the molar mass of the structure shown. Like-named read-outs stand apart in the source and are kept apart here. Positions of bridges follow the written chain, without caps; N, C: chain ends. Non-standard residues stand in square brackets, D forms with d. Residues, ends and D or L forms follow the SMILES beside them. Lys(N3) = [N-]=[N+]=NCCCC[C@H](N)C(=O)O; R8 = C=CCCCCCC[C@@](C)(N)C(=O)O; αMeE = C[C@](N)(CCC(=O)O)C(=O)O; Cba = N[C@@H](CC1CCC1)C(=O)O; S5 = C=CCCC[C@](C)(N)C(=O)O; βAla = NCCC(=O)O

What was measured:
[1] = Lactate dehydrogenase (LDH) release assay; format: cell-based
In short: (§1)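 LDH release, fluorometric membrane-integrity read-out; HCT116 with stable p53-responsive β-lactamase reporter; 8000 cells/well; 0.5% DMSO final; geometric mean, n≥3 biological replicates.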

[2] = Solubility assay (kinetic solubility, PBS pH 7); format: physicochemical; conditions: for solubility kinetic: read-out: Solubility
In short: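 Quantitation uses an external standard at 100 µM, prepared from 10 mM stock in acetonitrile:methanol:DMSO (10:80:10). Solubility (µM) = (peak area of sample ÷ peak area of standard) × standard concentration.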

Ca Ski cell line = conditions: 72 h
In short: (§2)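 Compound dilution series (10 points, 3-fold, 10 mM top stock in DMSO) tested on overnight-plated Ca Ski cells in RPMI1640/10% FBS and on blasticidin-selected p53RE-bla HCT-116 cells in McCoy's 5A; read-out was CellTiter-Glo 2.0 luminescence after room-temperature equilibration.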

[3] = system: CellSensor p53RE-bla HCT-116 Cell Line; conditions: 72 h
In short: as §2

in vitro = assay: in vitro
In short: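 Azido-peptide permeability was read as loss of NanoBRET signal (donor 450 nm, acceptor 610 nm) after adding NanoBret618-azide at 10 μM final.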

EPSA = format: physicochemical
[4] = Experimental LogD (partition coefficient); conditions: for logD: not stated, Partition Coeff LogD
HCT116 cells = assay: Lactate dehydrogenase (LDH) release assay; format: cell-based
In short: as §1

[5] = system: Jump-In T-REx CHO-K1 BLA cells; assay: cells; format: cell-based; conditions: Supplementary Table 1; 0% serum, 4 hours
[6] = pH 7, aqueous buffer, kinetic from dmso stock, pH 7, PBS
[7] = Nanoclick permeability assay EC50

CC(=O)N[C@@H](CCCCN=[N+]=[N-])C(=O)NCCC(=O)N[C@@H](CC(C)C)C(=O)N[C@H](C(=O)N[C@@H](Cc1ccccc1)C(=O)N[C@]1(C)CCCCCCC=CCCC[C@@](C)(C(=O)N[C@@H](CO)C(=O)N[C@@H](C)C(=O)N[C@@H](CCC(=O)O)C(N)=O)NC(=O)[C@H](CC2CCC2)NC(=O)[C@H](CCC(N)=O)NC(=O)[C@H](C)NC(=O)[C@H](Cc2c[nH]c3ccccc23)NC(=O)[C@H](Cc2ccc(O)cc2)NC(=O)[C@H](CCC(=O)O)NC1=O)[C@@H](C)O [MP-524]
EC50 ([1]; LDH: Cytotoxicity assay: EC50): > 50.7 µM
solubility kinetic [2, 6]: 148 µM (≈ 300 µg/mL)
EC50 (Ca Ski cell line): > 49.8 µM
EC50 [3]: 1.34 µM
cell entry EC50 (in vitro; [7]): 1.32 µM
EPSA (EPSA): Poorly Behaved
logD [4]: 2.1

CC(=O)N[C@@H](CCCCN=[N+]=[N-])C(=O)NCCC(=O)N[C@@H](CC(C)C)C(=O)N[C@H](C(=O)N[C@@H](Cc1ccccc1)C(=O)N[C@]1(C)CCCCCCC=CCCC[C@@](C)(C(=O)N[C@@H](C)C(=O)N[C@@H](C)C(=O)N[C@@H](Cc2ccccc2)C(=O)N[C@@H](C)C(=O)N[C@@H](C)C(=O)N[C@H](Cc2ccccc2)C(N)=O)NC(=O)[C@H](CC2CCC2)NC(=O)[C@H](CCC(N)=O)NC(=O)[C@H](C)NC(=O)[C@H](Cc2c[nH]c3ccccc23)NC(=O)[C@H](Cc2ccc(O)cc2)NC(=O)[C@H](CCC(=O)O)NC1=O)[C@@H](C)O [MP-063] (Ac-[Lys(N3)][βAla]LTF[R8]EYWAQ[Cba][S5]AAFAA[dF]-NH2; staple 6-13)
EC50 ([1]; LDH: Cytotoxicity assay: EC50): > 50.7 µM
solubility kinetic [2, 6]: 9 µM (≈ 20.9 µg/mL)
EC50 (Ca Ski cell line): > 49.8 µM
EC50 [3]: 2.78 µM
cell entry EC50 (in vitro; [7]): 0.394 µM
EPSA (EPSA; EPSA): 199 A^2

CC(=O)N[C@@H](CCCCN=[N+]=[N-])C(=O)NCCC(=O)N[C@@H](CC(C)C)C(=O)N[C@H](C(=O)N[C@@H](CCC(=O)O)C(=O)N[C@]1(C)CCCCCCC=CCCC[C@@](C)(C(=O)N[C@@H](CO)C(=O)N[C@@H](C)C(=O)N[C@@H](C)C(N)=O)NC(=O)[C@H](CC2CCC2)NC(=O)[C@H](CCC(N)=O)NC(=O)[C@H](C)NC(=O)[C@H](Cc2c[nH]c3ccccc23)NC(=O)[C@H](Cc2ccc(O)cc2)NC(=O)[C@H](CCC(=O)O)NC1=O)[C@@H](C)O [MP-843]
EC50 ([1]; LDH: Cytotoxicity assay: EC50): > 50.7 µM
solubility kinetic [2, 6]: 151 µM (≈ 295 µg/mL)
EC50 (Ca Ski cell line): > 49.8 µM
cell entry EC50 (in vitro; [7]): 0.597 µM
EPSA (EPSA; EPSA): 208 A^2
logD [4]: 1.78

CC(=O)N[C@@H](CCCCN=[N+]=[N-])C(=O)NCCC(=O)N[C@@H](CC(C)C)C(=O)N[C@H](C(=O)N[C@@H](Cc1ccccc1)C(=O)N[C@]1(C)CCCCCCC=CCCC[C@@](C)(C(=O)N[C@@H](C)C(=O)N[C@@H](C)C(=O)N[C@@H](Cc2ccccc2)C(=O)N[C@@H](C)C(=O)N[C@@](C)(CCC(=O)O)C(=O)N[C@@H](Cc2ccccc2)C(N)=O)NC(=O)[C@H](CC2CCC2)NC(=O)[C@H](CCC(N)=O)NC(=O)[C@H](C)NC(=O)[C@H](Cc2c[nH]c3ccccc23)NC(=O)[C@H](Cc2ccc(O)cc2)NC(=O)[C@H](CCC(=O)O)NC1=O)[C@@H](C)O [MP-229] (Ac-[Lys(N3)][βAla]LTF[R8]EYWAQ[Cba][S5]AAFA[αMeE]F-NH2; staple 6-13)
EC50 ([1]; LDH: Cytotoxicity assay: EC50): > 50.7 µM
solubility kinetic [2, 6]: 153 µM (≈ 366 µg/mL)
solubility kinetic [2]: 157 µM (≈ 376 µg/mL)
EC50 (Ca Ski cell line): 19.9 µM
EC50 [3]: 2.32 µM
cell entry EC50 (in vitro; [7]): 2.09 µM
EPSA (EPSA; EPSA): 253 A^2
logD [4]: 2.93

CC(=O)N[C@@H](CCCCN=[N+]=[N-])C(=O)NCCC(=O)N[C@@H](CC(C)C)C(=O)N[C@H](C(=O)N[C@@H](Cc1ccccc1)C(=O)N[C@]1(C)CCCCCCC=CCCC[C@@](C)(C(=O)N[C@@H](CCC(=O)O)C(=O)N[C@@H](CCC(=O)O)C(=O)N[C@@H](C)C(N)=O)NC(=O)[C@H](CC2CCC2)NC(=O)[C@H](CCC(N)=O)NC(=O)[C@H](CCC(=O)O)NC(=O)[C@H](Cc2c[nH]c3ccccc23)NC(=O)[C@H](Cc2ccc(O)cc2)NC(=O)[C@H](CCC(=O)O)NC1=O)[C@@H](C)O [MP-3684] (Ac-[Lys(N3)][βAla]LTF[R8]EYWEQ[Cba][S5]EEA-NH2; staple 6-13)
EC50 ([1]; 0% FBS 4Hr, read-out: LDH: Cytotoxicity assay: EC50): > 50.7 µM
EC50 ([1]; 10% FBS 16Hr, read-out: LDH: Cytotoxicity assay: EC50): > 50.7 µM
LDH: Cytotoxicity assay: % Effect (HCT116 cells; 0% FBS 4Hr): 7.239%
LDH: Cytotoxicity assay: % Effect (HCT116 cells; 10% FBS 16Hr): 0.1213%
off-target effects (LDH release and/or counterscreen activity) [5]: none
cell entry EC50 (in vitro): 3.88 µM
EPSA (EPSA): Poorly Behaved
logD [4]: 1.89

CC(=O)N[C@@H](CCCCN=[N+]=[N-])C(=O)NCCC(=O)N[C@@H](CC(C)C)C(=O)N[C@H](C(=O)N[C@@H](Cc1ccccc1)C(=O)N[C@]1(C)CCCCCCC=CCCC[C@@](C)(C(=O)N[C@@H](CO)C(=O)N[C@@H](C)C(=O)N[C@@H](C)C(N)=O)NC(=O)[C@H](CC2CCC2)NC(=O)[C@H](CCC(N)=O)NC(=O)[C@H](C)NC(=O)[C@H](CCC(=O)O)NC(=O)[C@H](Cc2ccc(O)cc2)NC(=O)[C@H](CCC(=O)O)NC1=O)[C@@H](C)O [MP-956]
EC50 ([1]; LDH: Cytotoxicity assay: EC50): > 50.7 µM
solubility kinetic [2, 6]: 175 µM (≈ 335 µg/mL)
EC50 (Ca Ski cell line): > 49.8 µM
cell entry EC50 (in vitro; [7]): 9.22 µM
EPSA (EPSA; EPSA): 198 A^2
logD [4]: 1.7

CC(=O)N[C@@H](CCCCN=[N+]=[N-])C(=O)NCCC(=O)N[C@@H](CC(C)C)C(=O)N[C@H](C(=O)N[C@@H](Cc1ccccc1)C(=O)N[C@]1(C)CCCCCCC=CCCC[C@@](C)(C(=O)N[C@@H](CO)C(=O)N[C@@H](C)C(=O)N[C@@H](C)C(N)=O)NC(=O)[C@H](CCC(=O)O)NC(=O)[C@H](CCC(N)=O)NC(=O)[C@H](C)NC(=O)[C@H](Cc2c[nH]c3ccccc23)NC(=O)[C@H](Cc2ccc(O)cc2)NC(=O)[C@H](CCC(=O)O)NC1=O)[C@@H](C)O [MP-841]
EC50 ([1]; LDH: Cytotoxicity assay: EC50): > 50.7 µM
solubility kinetic [2, 6]: 162 µM (≈ 320 µg/mL)
EC50 (Ca Ski cell line): > 49.8 µM
cell entry EC50 (in vitro; [7]): 0.878 µM
EPSA (EPSA; EPSA): 255 A^2
logD [4]: 2.06

CC(=O)N[C@@H](CCCCN=[N+]=[N-])C(=O)NCCC(=O)N[C@@H](CC(C)C)C(=O)N[C@H](C(=O)N[C@@H](Cc1ccccc1)C(=O)N[C@]1(C)CCCCCCC=CCCC[C@@](C)(C(=O)N[C@@H](C)C(=O)N[C@@H](C)C(=O)N[C@@H](C)C(=O)N[C@@H](C)C(=O)N[C@@H](C)C(=O)N[C@@H](Cc2ccccc2)C(N)=O)NC(=O)[C@H](CC2CCC2)NC(=O)[C@H](CCC(N)=O)NC(=O)[C@H](C)NC(=O)[C@H](Cc2c[nH]c3ccccc23)NC(=O)[C@H](Cc2ccc(O)cc2)NC(=O)[C@H](CCC(=O)O)NC1=O)[C@@H](C)O [MP-060] (Ac-[Lys(N3)][βAla]LTF[R8]EYWAQ[Cba][S5]AAAAAF-NH2; staple 6-13)
EC50 ([1]; LDH: Cytotoxicity assay: EC50): > 50.7 µM
Solubility [2]: P.B.
Solubility ([2]; pH 7, PBS): Poorly Behaved
EC50 (Ca Ski cell line): > 49.8 µM
cell entry EC50 (in vitro; [7]): 1.09 µM
EPSA (EPSA; EPSA): 198 A^2
Partition Coeff LogD [4]: Poorly Behaved

CC(=O)N[C@@H](CCCCN=[N+]=[N-])C(=O)NCCC(=O)N[C@@H](CC(C)C)C(=O)N[C@H](C(=O)N[C@@H](Cc1ccccc1)C(=O)N[C@]1(C)CCCCCCC=CCCC[C@@](C)(C(=O)N[C@@H](C)C(=O)N[C@@H](C)C(=O)N[C@@H](Cc2ccccc2)C(=O)N[C@@H](C)C(=O)N[C@@H](C)C(=O)N[C@H](C)C(N)=O)NC(=O)[C@H](CC2CCC2)NC(=O)[C@H](CCC(N)=O)NC(=O)[C@H](C)NC(=O)[C@H](Cc2c[nH]c3ccccc23)NC(=O)[C@H](Cc2ccc(O)cc2)NC(=O)[C@H](CCC(=O)O)NC1=O)[C@@H](C)O [MP-228] (Ac-[Lys(N3)][βAla]LTF[R8]EYWAQ[Cba][S5]AAFAA[dA]-NH2; staple 6-13)
EC50 ([1]; LDH: Cytotoxicity assay: EC50): > 50.7 µM
solubility kinetic [2, 6]: 2 µM (≈ 4.49 µg/mL)
EC50 (Ca Ski cell line): 30.7 µM
cell entry EC50 (in vitro; [7]): 2.51 µM
EPSA (EPSA; EPSA): 199 A^2
